Measurements reported in patent publication US10906924B2, “Modulators of indoleamine 2,3-dioxygenase” (GLAXOSMITHKLINE INTELLECTUAL PROPERTY DEVELOPMENT LIMITED, priority 2017, dated 2021).

Target: indoleamine 2,3-dioxygenase (IDO1) (Homo sapiens, UniProt P14902)
Assay: PBMC IDO1 assay (kynurenine by mass spectrometry)
Format: cell-based
Settings: human PBMC stimulated with IFN-γ and LPS, 2 days incubation, kynurenine detected by mass spectrometry; read-out: IDO1 PBMC pIC50 (converted)

Sequence of indoleamine 2,3-dioxygenase (IDO1) (P14902 whole entry): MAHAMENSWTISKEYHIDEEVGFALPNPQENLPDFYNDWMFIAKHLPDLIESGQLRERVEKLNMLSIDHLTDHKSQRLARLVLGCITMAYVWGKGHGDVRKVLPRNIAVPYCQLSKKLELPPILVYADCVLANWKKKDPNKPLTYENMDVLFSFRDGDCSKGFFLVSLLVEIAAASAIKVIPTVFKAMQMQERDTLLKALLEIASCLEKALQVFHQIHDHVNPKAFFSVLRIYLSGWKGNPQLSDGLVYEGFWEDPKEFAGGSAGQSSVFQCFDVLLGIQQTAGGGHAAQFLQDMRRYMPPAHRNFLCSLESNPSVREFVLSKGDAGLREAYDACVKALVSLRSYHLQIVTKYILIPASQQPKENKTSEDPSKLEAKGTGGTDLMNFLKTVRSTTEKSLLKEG

| Structure (SMILES) | IC50 |
| --- | --- |
| CCOC(=O)N1CCC2(CC1)CC(NC(=O)c1cccc3cn[nH]c13)c1cc(Br)cnc1O2 (stereo not shown) [Example 23, ethyl 6′-bromo-4′-(1H-indazole-7-carboxamido)-3′,4′-dihydrospiro[piperidine-4,2′-pyrano[2,3-b]pyridine]-1-carboxylate] | 79.4 nM |
| CCOC(=O)N1CCC2(CC1)C[C@H](NC(=O)c1cccc3cn(COP(=O)(O)O)nc13)c1ccccc1O2 [Example 55, 2-amino-2-(hydroxymethyl)propane-1,3-diol hemi((S)-(7-((1′-(ethoxycarbonyl)spiro[chroman-2,4′-piperidin]-4-yl)carbamoyl)-2H-indazol-2-yl)methyl phosphate)] | 126 nM |
| COC(=O)N1CCC2(CC1)C[C@H](NC(=O)c1cccc3cn[nH]c13)c1cc(Br)ccc1O2 [Example 5, (S)-methyl 6-bromo-4-(1H-indazole-7-carboxamido)spiro[chroman-2,4′-piperidine]-1′-carboxylate] | 5.01 nM |
| COC(=O)N1CCC2(CC1)C[C@H](NC(=O)c1cccc3cn[nH]c13)c1nc(OC)ccc1O2 [Example 57, methyl (S)-4′-(1H-indazole-7-carboxamido)-6′-methoxy-3′,4′-dihydrospiro[piperidine-4,2′-pyrano[3,2-b]pyridine]-1-carboxylate] | 10 nM |
| CCOC(=O)N1CCC2(CC1)C[C@H](NC(=O)c1cccc3c(COC(C)=O)[nH]nc13)c1cc(Br)ccc1O2 [Example 61, ethyl (S)-4-(3-(acetoxymethyl)-1H-indazole-7-carboxamido)-6-bromo spiro[chromane-2,4′-piperidine]-1′-carboxylate] | 1.26 nM |

Now from value to compound:

| IC50 | Structure (SMILES) |
| --- | --- |
| 100 nM | CCOC(=O)N1CCC2(CC1)C[C@H](NC(=O)c1cccc(O)n1)c1cc(Br)ccc1O2 [Example 25, (S)-ethyl 6-bromo-4-(6-hydroxypicolinamido)spiro[chroman-2,4′-piperidine]-1′-carboxylate] |
| 631 nM | CCOC(=O)N1CCC2(CC1)CC(NC(=O)c1ccnn1C)c1ccccc1O2 (stereo not shown) [Example 43, ethyl 4-(1-methyl-1H-pyrazole-5-carboxamido)spiro[chroman-2,4′-piperidine]-1′-carboxylate] |
